Laboratory results from patent US20100267638A1, “EXOSITE-DIRECTED THROMBIN INHIBITORS” (CLEVELAND STATE UNIVERSITY, priority 2003, published 2010).
Entries after “also recorded” stand apart in the source; their conditions may differ. No end group written: not given here.

What was measured:
[1] = molecular target: T1, active-site-immobilized thrombin (Homo sapiens, UniProt P00734); experiment: Direct binding of the peptides to thrombin-agarose (chromatography); conditions: 400 μg peptide, 2.5 ml column, elution 2M NaCl
T1 construct: Factor Xa cleaves prothrombin to form thrombin; purchased Haematologic Technologies Inc. (Essex Junction, Vt.)
Experimental: Direct binding of the peptides to thrombin. Thrombin was immobilized onto agarose through the active site as described. Peptide solutions of HC1-HC5 (SEQ ID NO. 2-6, respectively), D13R (SEQ ID NO. 21), DYDYQ (SEQ ID NO. 11), and P15H (SEQ ID NO. 22) were dissolved in water to a given concentration and then diluted in 20 mM Hepes, 0.1 M NaCl, pH 7.4 in a manner that 400 μg was contained in each starting solution. In control experiments it was determined that the maximum amount of peptide that could be retained by the thrombin-agarose column was 400 μg. Since some of the peptides contain aromatic amino acid residues, their concentration was also measured by optical density.
Mass spectrometry instruments and conditions. The identity of all peptides found in the flow-through or the elution of the thrombin-agarose column was verified by mass spectrometry. Since the peptides were in a buffer solution, we used Liquid Chromatography/Mass Spectrometry (LC/MS) for their identification. In this procedure peptides are first separated from the salt content of the buffer using an HPLC system (HP 1100, HPLC gradient system, Agilent Technologies, Palo Alto Calif.) with a C18 column (1 mm×15 cm, GraceVydac, Hesperia Calif.) with buffers A (0.3% acetic acid in water) and B (0.3% acetic acid in acetonitrile). The elution of the column was monitored with a Micromass Quatro II ESI-Triple Quadrupole Mass Spectrometer (Waters, Milford Mass.). The data were collected using a Compaq Professional Workstation AP200 (Hewlett-Packard, Palo Alto Calif.) and analyzed by the software MassLynx v3.3 (Waters, Milford Mass.).
Direct interaction of hirudin-like peptides from factor tor Va heavy chain With thrombin-agarose. To ascertain that the peptides of interest are inhibitory of prothrombinase activity and contain a binding site for thrombin, the interaction of all peptides with active-site-immobilized thrombin was studied in chromatographic experiments and is shown in FIG. 5. In FIG. 5, small scale chromatography of hirudin-like peptides was performed on a 2.5 ml thrombin-agarose. Each run represents 400 μg of peptide. This amount of peptide was determined to saturate the specific sites of thrombin of the column used (2.5 ml). Elution was performed with 2M NaCl and was started at the point indicated by the arrow (fraction #30). The presence of the peptides in the corresponding fractions was monitored by absorbance at 280 nm (shown on the y axis) and by LC/MS (inset). […] Specifically, these peptides were treated similarly to all other peptides and similar fractions were collected. Aliquots from fractions #7 and #35 from each separate experiment were submitted to LC/MS analysis as described herein (depicted by the hatched arrows at the bottom of the chromatogram). The results from tube #7 from three chromatograms are depicted. The data are presented as % intensity of the signal as a function of the mass of the peptide divided by the charge (m/z). FIG. 5A, HC1 (Mr calculated 1268); FIG. 5B, HC2 (Mr calculated 1132); FIG. 5C, HC5 (Mr calculated 1053). The spectrum of HC1 has two major peaks: at 635.5 and at 424, and one minor peak at 1270 (1268+1). The peak at 635.5 represents the peptide (mass/charge) with two positive charges ([…]) i.e. [(1268+2=1270)]/2=635 whereas, the peak at 424 represents HC1 with three positive charges ([…]) i.e. [(1268+3=1271)]/3=424. […] HC5 spectrum has two major peaks: one at 528 and one at 352. The peak at 528 represents the peptide with two positive charges ([…]) i.e. [(1053+2=1055)]/2=527.5 while, the other peak represents HC5 with three positive charges ([M+31-]^2+) i.e. [(1053+3=1056)]/3=352. The minor peak at 1054 represents the peptide with one charge. It is noteworthy, that in gas phase the number of protons attached to each peptide depends on the number (quantity) of basic residues contained in each peptide. […] Thus, HC1 and HC5 are more likely to bind two or three protons than HC2. […]

thrombin = thrombin (Homo sapiens, UniProt P00734); experiment: Activation of plasma factor V by thrombin preincubated with peptide (SDS-PAGE, immunoblotting); assay type: biochemical; design: Factor Xa cleaves prothrombin to form thrombin; purchased Haematologic Technologies Inc. (Essex Junction, Vt.); conditions: thrombin 1 nM preincubated with 100 μM peptide, factor V 250 nM
Experimental: Gel Electrophoresis and western blotting. Sodium dodecyl sulfate polyacrylamide gel electrophoresis (SDS-PAGE) analyses were performed using 4-12% gradient gels according to the method of Laemmli. In several experiments, proteins were transferred to polyvinylidene difluoride (PVDF) membranes according to the method described by Towbin et al. After transfer to nitrocellulose, factor V heavy and light chain(s) were detected using the appropriate monoclonal and polyclonal antibodies. Immunoreactive fragments were visualized with chemiluminescence.
Factor V (250 nM) was incubated with thrombin (1 nM). And FIG. 4B illustrates thrombin (1 nM) was preincubated with 100 μM peptide DYDYQ and the mixture was added to factor V (250 nM). […] Fragments were identified following staining with monoclonal antibody αHFV#17 that recognizes an epitope between amino acid residues 307-506 of factor V and chemiluminescence as described. Lane 1 in both panels depicts aliquots of the mixture withdrawn from the reaction before the addition of thrombin or thrombin/peptide mixture while lanes 2-7 show aliquots of the reaction mixture withdrawn at 30 sec, 1 min, 3 min, 5 min, 10 min, 15 min following the addition of thrombin alone or of thrombin/peptide mixture. The time of incubation is shown at the bottom of the figure. Position of the molecular weight markers is indicated at left.

[2] = Clotting time as a function of peptide concentration (FIG. 12); conditions: peptide 500 nM
Excerpt: FIG. 12 is a graph illustrating clotting time as a function of concentration of various peptides of interest as follows: DYDYQ (SEQ ID NO. 11) (filled squares); DYDYQ (1, 2) (or as designated in shorthand form, D5Q1,2) (SEQ ID NO. 9) (filled triangles); DYDYQ-1 (SEQ ID NO. 7) (filled inverted triangles); and DYDYQ-2 (SEQ ID NO. 8) (filled diamonds).

## DYDYQ [DYDYQ, Asp-Tyr-Asp-Tyr-Gln]
[1]
  interaction with immobilized thrombin (thrombin-agarose): eluted from the column with high-salt buffer; also recorded: interact with immobilized thrombin
thrombin
  inhibition of activation of factor V by thrombin (cleavage at Arg709): inhibited
thrombin; listed as pentapeptide
  inhibition of activation of factor V by thrombin (cleavage at Arg709): potent inhibitor
[2]
  clotting time: relatively long clotting times
